Values joined by “and” are separate entries in the source; they are usually repeats but may differ in a detail not shown here. Equal entries are not always repeated. Toxic doses and inconclusive results are not listed. Rule as the data show it: active = T/C of 150% or more; inactive = T/C below 125%.
System: L1210 leukemia ip in BDF1 mice, survival T/C
Experiment: NCI In Vivo Anticancer Drug Screen. Data for tumor model L1210 Leukemia (intraperitoneal) in B6D2F1 (BDF1) mice
Conditions: endpoint: mean survival time, higher = longer survival
How it was run: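 Survival endpoint. Drug-treated group vs vehicle group, expressed as T divided by C. Tumor passaged by transplantation.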

[1] = dose: 100.0 mg/kg/injection, schedule: Q01DX009 (ip), vehicle: saline with Tween-80
[2] = dose: 400.0 mg/kg/injection, schedule: Q01DX009 (ip), vehicle: saline with Tween-80
[3] = dose: 100.0 mg/kg/injection, schedule: Q01DX009 (ip), vehicle: other
[4] = dose: 200.0 mg/kg/injection, schedule: Q01DX009 (ip), vehicle: other
[5] = dose: 400.0 mg/kg/injection, schedule: Q01DX009 (ip), vehicle: other
[6] = dose: 25.0 mg/kg/injection, schedule: Q04DX003 (ip), vehicle: Klucel (hydroxypropylcellulose) (HPC)
[7] = dose: 50.0 mg/kg/injection, schedule: Q04DX003 (ip), vehicle: Klucel (hydroxypropylcellulose) (HPC)
[8] = dose: 100.0 mg/kg/injection, schedule: Q04DX003 (ip), vehicle: Klucel (hydroxypropylcellulose) (HPC)
[9] = dose: 5.0 mg/kg/injection, schedule: Q01DX001 (ip), vehicle: saline
[10] = dose: 10.0 mg/kg/injection, schedule: Q01DX001 (ip), vehicle: saline
[11] = dose: 20.0 mg/kg/injection, schedule: Q01DX001 (ip), vehicle: saline
[12] = dose: 100.0 mg/kg/injection, schedule: Q04DX003 (ip), vehicle: saline
[13] = dose: 200.0 mg/kg/injection, schedule: Q04DX003 (ip), vehicle: saline
[14] = dose: 400.0 mg/kg/injection, schedule: Q04DX003 (ip), vehicle: saline
[15] = dose: 100.0 mg/kg/injection, schedule: Q04DX003 (ip), vehicle: saline with Tween-80
[16] = dose: 200.0 mg/kg/injection, schedule: Q01DX009 (ip), vehicle: saline with Tween-80
[17] = dose: 200.0 mg/kg/injection, schedule: Q04DX003 (ip), vehicle: saline with Tween-80
[18] = dose: 400.0 mg/kg/injection, schedule: Q04DX003 (ip), vehicle: saline with Tween-80
[19] = dose: 100.0 mg/kg/injection, schedule: Q01DX001 (ip), vehicle: saline
[20] = dose: 200.0 mg/kg/injection, schedule: Q01DX001 (ip), vehicle: saline
[21] = dose: 400.0 mg/kg/injection, schedule: Q01DX001 (ip), vehicle: saline
[22] = dose: 100.0 mg/kg/injection, schedule: Q01DX001 (ip), vehicle: Klucel (hydroxypropylcellulose) (HPC)
[23] = dose: 200.0 mg/kg/injection, schedule: Q01DX001 (ip), vehicle: Klucel (hydroxypropylcellulose) (HPC)
[24] = dose: 400.0 mg/kg/injection, schedule: Q01DX001 (ip), vehicle: Klucel (hydroxypropylcellulose) (HPC)
[25] = dose: 12.5 mg/kg/injection, schedule: Q01DX009 (ip), vehicle: saline with Tween-80
[26] = dose: 100.0 mg/kg/injection, schedule: Q01DX009 (ip), vehicle: saline
[27] = dose: 200.0 mg/kg/injection, schedule: Q01DX009 (ip), vehicle: saline

Measured: T/C

Cc1cn(C2C=CC(CO)O2)c(=O)[nH]c1=O (stereo unspecified)
inactive: [1] 89 % of control | [2] 90 % of control

COC1OC2COc3ccccc3OC2C(NC(C)=O)C1O (stereo unspecified)
inactive: [3] 96 % of control | [4] 89 % of control | [5] 94 % of control

CCN=C=NCCCN(C)C
inactive: dose: 20.0 mg/kg/injection, schedule: Q01DX009 (ip), vehicle: saline 107 % of control | dose: 20.0 mg/kg/injection, schedule: Q04DX003 (ip), vehicle: saline 100 % of control | dose: 40.0 mg/kg/injection, schedule: Q01DX009 (ip), vehicle: saline 114 % of control | dose: 40.0 mg/kg/injection, schedule: Q04DX003 (ip), vehicle: saline 109 % of control | dose: 80.0 mg/kg/injection, schedule: Q04DX003 (ip), vehicle: saline 112 % of control

Cc1ccccc1N=C(N)N=C(N)N
inactive: dose: 25.0 mg/kg/injection, schedule: Q01DX009 (ip), vehicle: Klucel (hydroxypropylcellulose) (HPC) 93 % of control | [6] 95 % of control | dose: 50.0 mg/kg/injection, schedule: Q01DX009 (ip), vehicle: Klucel (hydroxypropylcellulose) (HPC) 90 % of control | [7] 103 % of control | dose: 100.0 mg/kg/injection, schedule: Q01DX009 (ip), vehicle: Klucel (hydroxypropylcellulose) (HPC) 98 % of control and 92 % of control | [8] 100 % of control and 90 % of control

CCCCCCOc1ccc(C(=N)N(CCCC)CCCC)c2ccccc12
inactive: [9] 97 % of control | [10] 97 % of control | [11] 89 % of control

CC(C)=CC=O
inactive: dose: 100.0 mg/kg/injection, schedule: Q01DX009 (ip), vehicle: saline sonified 97 % of control | [12] 96 % of control | dose: 200.0 mg/kg/injection, schedule: Q01DX009 (ip), vehicle: saline sonified 100 % of control | [13] 97 % of control | [14] 103 % of control

NC(N)=NC1=NC(=O)CS1
inactive: [1] 105 % of control | [15] 108 % of control | [16] 103 % of control | [17] 96 % of control | [2] 103 % of control | [18] 92 % of control

Nc1nc(N)c(-c2ccc(Cl)c(Cl)c2)c(/C=C/c2ccc(S(=O)(=O)F)cc2)n1
inactive: dose: 100.0 mg/kg/injection, schedule: Q01DX001 (ip), vehicle: saline with Tween-80 87 % of control | dose: 200.0 mg/kg/injection, schedule: Q01DX001 (ip), vehicle: saline with Tween-80 91 % of control | dose: 400.0 mg/kg/injection, schedule: Q01DX001 (ip), vehicle: saline with Tween-80 87 % of control

O=S(=O)(Oc1ccc(-c2ccccc2)cc1)C1CC1c1ccccc1 (stereo unspecified)
inactive: [19] 93 % of control | [12] 93 % of control | [20] 97 % of control | [13] 96 % of control | [21] 90 % of control | [14] 91 % of control

COC(=O)CCc1nc(N)nc(N)n1
inactive: dose: 50.0 mg/kg/injection, schedule: Q01DX001 (ip), vehicle: carboxymethylcellulose (CMC) 98 % of control | dose: 100.0 mg/kg/injection, schedule: Q01DX001 (ip), vehicle: carboxymethylcellulose (CMC) 90 % of control | dose: 200.0 mg/kg/injection, schedule: Q01DX001 (ip), vehicle: carboxymethylcellulose (CMC) 101 % of control | dose: 400.0 mg/kg/injection, schedule: Q01DX001 (ip), vehicle: carboxymethylcellulose (CMC) 90 % of control

CCC(C)N (stereo unspecified)
inactive: [12] 95 % of control | [13] 95 % of control

CCCc1c(C)nc(N)[nH]c1=O
inactive: [22] 102 % of control | [23] 100 % of control | [24] 97 % of control

O=C1OC(=O)N2N=CC=CC12 (stereo unspecified)
inactive: [1] 102 % of control | [16] 100 % of control | [2] 96 % of control

O=C1C2C3C=CC(CC3)C2C(=O)C2C3C=CC(C3)C12 (stereo unspecified)
inactive: dose: 100.0 mg/kg/injection, schedule: Q04DX002 (ip), vehicle: saline with Tween-80 101 % of control | dose: 200.0 mg/kg/injection, schedule: Q04DX002 (ip), vehicle: saline with Tween-80 93 % of control

COC1=C(Cl)C(=O)C(OC)=C(Cl)C1=O
inactive: [9] 97 % of control | [10] 95 % of control | [11] 106 % of control | dose: 40.0 mg/kg/injection, schedule: Q01DX001 (ip), vehicle: saline 101 % of control

CC(=O)OC1(c2ccc(Cl)cc2)OC(=O)C(c2ccccc2)=C1Cc1ccccc1 (stereo unspecified)
inactive: [25] 93 % of control | dose: 25.0 mg/kg/injection, schedule: Q01DX009 (ip), vehicle: saline with Tween-80 86 % of control | dose: 50.0 mg/kg/injection, schedule: Q01DX009 (ip), vehicle: saline with Tween-80 86 % of control | [16] 95 % of control

O=C(O)c1cnc(Cl)nc1Nc1ccccc1I
inactive: dose: 6.25 mg/kg/injection, schedule: Q01DX009 (ip), vehicle: saline with Tween-80 93 % of control | dose: 12.5 mg/kg/injection, schedule: Q01DX001 (ip), vehicle: saline with Tween-80 90 % of control | [25] 88 % of control | dose: 25.0 mg/kg/injection, schedule: Q01DX001 (ip), vehicle: saline with Tween-80 90 % of control

Cc1[nH]nc(C(F)(F)F)c1N=NN(C)C
inactive: dose: 175.0 mg/kg/injection, schedule: Q01DX009 (ip), vehicle: saline 90 % of control

O=NC12CCCCC1C(O)c1cc(Cl)cc(Cl)c1O2 (stereo unspecified)
inactive: [3] 119 % of control | [8] 101 % of control | [4] 95 % of control | dose: 200.0 mg/kg/injection, schedule: Q04DX003 (ip), vehicle: Klucel (hydroxypropylcellulose) (HPC) 95 % of control | [5] 89 % of control | dose: 400.0 mg/kg/injection, schedule: Q04DX003 (ip), vehicle: Klucel (hydroxypropylcellulose) (HPC) 102 % of control

CC1=CC(=O)C(C)(C)C=C1
inactive: [1] 104 % of control | [15] 108 % of control | [16] 101 % of control | [17] 100 % of control | [2] 96 % of control

CC(C)C(=O)Nc1ccc(S(=O)(=O)NCCO)cc1
inactive: [15] 97 % of control | [17] 92 % of control | [18] 92 % of control

CCN(CC)CCCNC(C)=O
inactive: [26] 96 % of control | [27] 98 % of control

CN(C)C(=O)Sc1cccnc1
inactive: [26] 116 % of control | [27] 119 % of control

Cc1c(F)c(Br)c([N+](=O)[O-])c(C)c1[N+](=O)[O-]
inactive: [22] 96 % of control | [23] 102 % of control | [24] 102 % of control

OCCC(c1ccc(Cl)cc1)N1CCCCC1 (stereo unspecified)
inactive: dose: 100.0 mg/kg/injection, schedule: Q01DX001 (ip), vehicle: other 104 % of control

C[n+]1ccc(/C=C/c2ccc(Cl)c(Cl)c2)c2ccccc21
inactive: dose: 12.5 mg/kg/injection, schedule: Q04DX003 (ip), vehicle: Klucel (hydroxypropylcellulose) (HPC) 98 % of control | [6] 100 % of control | [7] 96 % of control

CCN(CC)CCOC(=O)c1ccccc1N(c1ccccc1)c1ccccc1
inactive: dose: 25.0 mg/kg/injection, schedule: Q01DX009 (ip), vehicle: saline 98 % of control | dose: 50.0 mg/kg/injection, schedule: Q01DX009 (ip), vehicle: saline 98 % of control | dose: 62.5 mg/kg/injection, schedule: Q01DX015 (ip), vehicle: saline 91 % of control | [19] 92 % of control | [26] 98 % of control | dose: 100.0 mg/kg/injection, schedule: Q04DX003 (ip), vehicle: acetone 96 % of control | dose: 125.0 mg/kg/injection, schedule: Q01DX015 (ip), vehicle: saline 95 % of control | dose: 150.0 mg/kg/injection, schedule: Q01DX009 (ip), vehicle: acetone 96 % of control | [20] 103 % of control | [21] 98 % of control
